Measured values published in patent publication US20140135310A1, “SULPHONAMIDE DERIVATIVES OF ALICYCLIC AMINES FOR THE TREATMENT OF CENTRAL NERVOUS SYSTEM DISEASES” (Adamed Sp. z o.o., priority 2011, published 2014).

Experiments:
[1] = biological target: dopaminergic receptors D2 (Homo sapiens, UniProt P14416); assay: Radioligand binding assay, dopaminergic D2 receptors; conditions: binding assay, test compound 1×10^−6 M
In short: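 Values derive from competition curves: percent inhibition of control specific binding was fitted by Hill non-linear regression for IC50, and Ki calculated with Cheng–Prusoff from radioligand concentration and KD (Scatchard). Bound ligand was detected by scintillation counting.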

[2] = biological target: T1, serotonin transporter (SERT) (Homo sapiens, UniProt P31645); assay: Radioligand binding assay, serotonin transporter (SERT); conditions: binding assay, test compound 1×10^−6 M
T1 construct: expressed in transfected cells; host or cells: CHO cells
T1 sequence (P31645 whole entry): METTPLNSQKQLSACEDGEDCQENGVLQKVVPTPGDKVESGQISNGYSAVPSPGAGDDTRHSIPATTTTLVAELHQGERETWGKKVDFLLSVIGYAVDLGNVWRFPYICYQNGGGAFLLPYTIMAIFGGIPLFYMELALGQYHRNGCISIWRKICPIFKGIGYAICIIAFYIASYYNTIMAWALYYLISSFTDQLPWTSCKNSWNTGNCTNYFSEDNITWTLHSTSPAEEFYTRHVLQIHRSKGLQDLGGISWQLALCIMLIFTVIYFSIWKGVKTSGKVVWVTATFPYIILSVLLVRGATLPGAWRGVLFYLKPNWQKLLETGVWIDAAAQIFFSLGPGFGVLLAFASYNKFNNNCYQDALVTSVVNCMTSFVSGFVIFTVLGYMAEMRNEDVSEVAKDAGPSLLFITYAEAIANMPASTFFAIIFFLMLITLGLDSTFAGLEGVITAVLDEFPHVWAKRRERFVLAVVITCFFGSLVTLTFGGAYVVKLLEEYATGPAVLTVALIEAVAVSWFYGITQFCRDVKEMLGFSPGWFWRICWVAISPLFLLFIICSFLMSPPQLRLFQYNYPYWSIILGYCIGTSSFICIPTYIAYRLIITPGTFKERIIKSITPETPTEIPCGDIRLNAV
In short: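 Values are derived from competition curves fitted by the Hill equation to give IC50, then converted to Ki by Cheng-Prusoff with radioligand Kd from Scatchard analysis. Specific binding equals total minus non-specific (excess cold ligand), counted by scintillation, and is also expressed as percent inhibition of control.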

[3] = biological target: T2, 5-HT2A receptor (Homo sapiens, UniProt P28223); assay: Radioligand binding assay, serotoninergic 5-HT2A receptors; conditions: binding assay result in %, Table 5a
T2 construct: purchased PerkinElmer
T2 sequence (P28223 whole entry): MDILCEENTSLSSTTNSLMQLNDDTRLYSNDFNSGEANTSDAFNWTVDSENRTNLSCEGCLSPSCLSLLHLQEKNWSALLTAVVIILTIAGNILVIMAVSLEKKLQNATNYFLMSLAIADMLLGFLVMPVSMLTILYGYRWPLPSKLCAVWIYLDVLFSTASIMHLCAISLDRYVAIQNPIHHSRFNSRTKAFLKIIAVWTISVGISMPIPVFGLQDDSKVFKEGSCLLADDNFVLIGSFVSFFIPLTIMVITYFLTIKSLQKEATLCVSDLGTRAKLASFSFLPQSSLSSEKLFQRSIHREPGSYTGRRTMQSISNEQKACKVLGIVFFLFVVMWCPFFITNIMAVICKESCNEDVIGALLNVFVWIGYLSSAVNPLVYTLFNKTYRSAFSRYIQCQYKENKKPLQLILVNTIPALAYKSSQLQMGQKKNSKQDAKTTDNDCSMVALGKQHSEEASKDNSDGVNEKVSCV
In short: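 Competition curves from scintillation-counted specific binding (total minus binding with excess unlabelled ligand) were Hill-fitted to give IC50, converted to Ki via Cheng-Prusoff using Scatchard-derived Kd.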

[4] = biological target: T3, 5-HT6 receptor (Homo sapiens, UniProt P50406); assay: Radioligand binding assay, serotoninergic 5-HT6 receptors; conditions: binding assay result in %, Table 5a;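 note: test compound at 1 µM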
T3 construct: purchased PerkinElmer
T3 sequence (P50406 whole entry): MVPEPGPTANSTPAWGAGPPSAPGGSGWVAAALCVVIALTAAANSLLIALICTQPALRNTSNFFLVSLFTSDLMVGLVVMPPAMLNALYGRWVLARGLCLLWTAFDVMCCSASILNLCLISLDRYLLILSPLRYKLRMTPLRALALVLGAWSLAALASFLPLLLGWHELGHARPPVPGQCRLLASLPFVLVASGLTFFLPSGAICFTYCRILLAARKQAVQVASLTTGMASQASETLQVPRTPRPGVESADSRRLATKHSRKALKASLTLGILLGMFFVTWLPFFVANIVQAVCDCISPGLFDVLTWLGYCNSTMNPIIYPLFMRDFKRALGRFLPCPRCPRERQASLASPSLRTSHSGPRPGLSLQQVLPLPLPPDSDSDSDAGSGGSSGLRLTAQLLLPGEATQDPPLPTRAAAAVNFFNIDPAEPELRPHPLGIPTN
In short: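 Values are Ki from Cheng–Prusoff, taking IC50 from Hill nonlinear regression of competition curves and KD from a Scatchard plot. Specific binding was total minus binding with excess unlabelled ligand. Radioligand displacement was detected by scintillation counting, and data were also reported as percent of control specific binding.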

[5] = biological target: T4, 5-HT7 receptor (Homo sapiens, UniProt P34969); assay: Radioligand binding assay, serotoninergic 5-HT7 receptors; conditions: binding assay result in %, Table 5a;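 note: test compound at 1 µM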
T4 construct: purchased PerkinElmer
T4 sequence (P34969 whole entry): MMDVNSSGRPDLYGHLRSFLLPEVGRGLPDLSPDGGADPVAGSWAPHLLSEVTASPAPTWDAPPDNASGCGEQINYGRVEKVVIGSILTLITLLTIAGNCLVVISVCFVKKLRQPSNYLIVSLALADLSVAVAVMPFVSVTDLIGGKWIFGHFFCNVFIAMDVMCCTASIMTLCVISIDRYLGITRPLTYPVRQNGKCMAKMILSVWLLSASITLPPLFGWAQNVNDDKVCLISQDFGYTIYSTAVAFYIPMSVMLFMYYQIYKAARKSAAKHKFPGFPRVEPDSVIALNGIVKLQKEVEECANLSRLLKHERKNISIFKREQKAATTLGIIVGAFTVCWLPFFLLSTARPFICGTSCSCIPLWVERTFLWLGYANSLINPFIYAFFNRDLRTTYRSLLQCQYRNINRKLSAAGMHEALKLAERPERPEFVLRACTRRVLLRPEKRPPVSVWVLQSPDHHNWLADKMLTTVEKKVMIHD
In short: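 Ki values used the Cheng–Prusoff equation, with KD from Scatchard analysis, applied to IC50 from Hill fits of human 5-HT7 radioligand competition curves. Bound radioligand was counted by scintillation, and excess unlabelled ligand set the non-specific binding.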

[6] = biological target: dopaminergic receptors D3 (Homo sapiens, UniProt P35462); assay: Radioligand binding assay, dopaminergic D3 receptors; conditions: test compound 1×10^−6 M
dopaminergic receptors D3, sequence (P35462 whole entry): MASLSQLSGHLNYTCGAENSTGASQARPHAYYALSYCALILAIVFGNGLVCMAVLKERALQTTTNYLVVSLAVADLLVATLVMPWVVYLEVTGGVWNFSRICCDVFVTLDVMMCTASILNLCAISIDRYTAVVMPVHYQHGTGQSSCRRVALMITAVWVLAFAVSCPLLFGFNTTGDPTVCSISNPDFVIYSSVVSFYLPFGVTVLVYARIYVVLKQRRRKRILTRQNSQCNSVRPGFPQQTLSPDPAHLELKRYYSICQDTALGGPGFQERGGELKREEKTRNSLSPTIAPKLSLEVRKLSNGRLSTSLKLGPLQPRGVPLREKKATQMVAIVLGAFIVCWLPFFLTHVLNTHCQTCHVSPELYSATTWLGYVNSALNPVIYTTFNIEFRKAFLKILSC
In short: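 Scintillation read-out. Specific = total − nonspecific (excess cold ligand). Data as % of control specific binding / % inhibition; IC50 by Hill fit; Ki = IC50/(1+L/KD), KD from Scatchard plot.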

[7] = biological target: T5, 5-HT1A receptor (rat hippocampus) (Rattus norvegicus, UniProt P19327); assay: Radioligand binding assay, serotoninergic 5-HT1A receptors; conditions: binding assay result in %, Table 5a;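 note: test compound at 1 µM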
T5 construct: hippocampus; from tissue; host or cells: rat hippocampus
T5 sequence (P19327 1-422): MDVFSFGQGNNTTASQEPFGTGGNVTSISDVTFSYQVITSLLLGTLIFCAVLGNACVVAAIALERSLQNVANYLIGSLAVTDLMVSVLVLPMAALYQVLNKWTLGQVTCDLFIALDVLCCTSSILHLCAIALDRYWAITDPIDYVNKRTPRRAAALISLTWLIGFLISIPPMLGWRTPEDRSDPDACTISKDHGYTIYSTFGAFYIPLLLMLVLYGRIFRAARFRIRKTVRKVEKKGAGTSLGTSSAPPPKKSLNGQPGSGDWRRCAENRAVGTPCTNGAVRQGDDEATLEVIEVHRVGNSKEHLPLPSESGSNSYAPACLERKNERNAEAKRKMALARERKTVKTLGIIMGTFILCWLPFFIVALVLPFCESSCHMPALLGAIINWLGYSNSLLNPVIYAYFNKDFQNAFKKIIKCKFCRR

[8] = test system: α1 adrenergic receptors (rat cerebral cortex); assay: Radioligand binding assay, adrenergic α1 receptors; conditions: test compound 1×10^−6 M
In short: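 Values derive from radioligand displacement, with non-specific binding defined by excess cold ligand and detection by scintillation. Hill-fit IC50s were converted to Ki via Cheng-Prusoff using Scatchard-derived Kd; percent inhibition of control specific binding also reported.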

dopaminergic receptors D2, sequence (P14416 whole entry): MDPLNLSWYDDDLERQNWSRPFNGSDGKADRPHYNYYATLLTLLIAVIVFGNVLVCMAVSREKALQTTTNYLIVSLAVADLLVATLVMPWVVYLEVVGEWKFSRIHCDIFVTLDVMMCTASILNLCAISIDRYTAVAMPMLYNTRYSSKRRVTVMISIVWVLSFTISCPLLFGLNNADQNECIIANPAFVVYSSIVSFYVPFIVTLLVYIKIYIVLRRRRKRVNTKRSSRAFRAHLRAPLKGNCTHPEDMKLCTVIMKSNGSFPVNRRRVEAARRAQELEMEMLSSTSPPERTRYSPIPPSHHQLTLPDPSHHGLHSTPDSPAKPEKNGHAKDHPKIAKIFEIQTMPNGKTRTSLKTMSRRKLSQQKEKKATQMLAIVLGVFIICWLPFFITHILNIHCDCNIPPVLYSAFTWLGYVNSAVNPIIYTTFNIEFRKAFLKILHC

SMILES	inhibition at 1 µM [1]	inhibition at 1 µM [2]	inhibition at 1 µM [3]	inhibition at 1 µM [4]	inhibition at 1 µM [5]	inhibition at 1 µM [6]	inhibition at 1 µM [7]	α1 [%] [8]	D2 [%] [1]	SERT [%] [2]	5-HT2A [%] [3]	5-HT6 [%] [4]	5-HT7 [%] [5]	D3 [%] [6]	5-HT1A [%] [7]
O=S(=O)(NC1CCN(CCCc2noc3cc(F)ccc23)CC1)c1ccc(-c2ccccc2)cc1 [Compound 327, N-[1-[3-(6-Fluoro-1,2-benzoxazol-3-yl)propyl]-4-piperidyl]-4-phenylbenzenesulphonamide]	79%	33%	94%	68%	86%	56%	20%	81%							
Cn1ccc2cc(S(=O)(=O)NCC3CN(CCOc4cccc5ccccc45)C3)ccc21 [Compound 169, 1-Methyl-N-[[1-[2-(1-naphthyloxy)ethyl]azetidin-3-yl]methyl]indole-5-sulphonamide]	84%	75%	69%	100%	93%	100%	84%	74%							
O=S(=O)(NCC1CN(CCOc2cccc3ccccc23)C1)c1cc2ccc(Cl)cc2s1 [Compound 164, 6-Chloro-N-[[1-[2-(1-naphthyloxy)ethyl]azetidin-3-yl]methyl]-benzothiophene-2-sulphonamide]	78%	34%	102%	94%	92%	98%	83%	13%							
O=S(=O)(NCC1CN(CCOc2cccc3c2OCCO3)C1)c1ccc(C(F)(F)F)cc1 [Compound 180, N-[[1-[2-(2,3-Dihydro-1,4-benzodioxin-5-yloxy)ethyl]azetidin-3-yl]methyl]-4-(trifluoromethyl)benzenesulphonamide]	23%	14%	68%	31%	94%	46%	93%	39%							
O=S(=O)(NCC1CN(CCOc2cccc3ccccc23)C1)c1cccc2ccccc12 [Compound 168, N-[[1-[2-(1-Naphthyloxy)ethyl]azetidin-3-yl]methyl]naphthalene-1-sulphonamide]	64%	25%	96%	93%	92%	94%	79%	31%							
O=S(=O)(NCC1CN(CCCc2c[nH]c3ccc(F)cc23)C1)c1ccc2ccccc2c1 [Compound 160, N-[[1-[3-(5-Fluoro-1H-indol-3-yl)propyl]azetidin-3-yl]methyl]naphthalene-2-sulphonamide]	86%	100%	97%	83%	75%	87%	76%	49%							
O=S(=O)(NCC1CCN(CCOc2cccc3[nH]ccc23)CC1)c1ccc2ccccc2c1 [Compound 67, N-[[1-[2-(1H-Indol-4-yloxy)ethyl]-4-piperidine]methyl]naphthalene-2-sulphonamide]								91%	57%	38%	80%	87%	79%	94%	76%
O=S(=O)(NC1CCN(CCOc2cccc3ccccc23)CC1)c1ccc2ccccc2c1 [Compound 120, N-[1-[2-(1-Naphthyloxy)ethyl]-4-piperidine]naphthalene-2-sulphonamide]								−9%	−33%	21%	68%	24%	89%	30%	8%
O=S(=O)(NCC1CN(CCOc2cccc3ccccc23)C1)c1ccc(F)c(F)c1 [Compound 173, 3,4-Difluoro-N-[[1-[2-(1-naphthyloxy)ethyl]azetidin-3-yl]methyl]-benzenesulphonamide]	59%	50%	73%	91%	105%	99%	83%	56%							
CC1(C)Cc2cccc(OCCN3CCC(CNS(=O)(=O)c4cccc(O)c4)C3)c2O1 (stereo not drawn) [Compound 113, N-[[1-[2-[(2,2-Dimethyl-3H-benzofuran-7-yl)oxy]ethyl]pyrrolidin-3-yl]methyl]-3-hydroxy-benzenesulphonamide]	47%	18%	65%	52%	85%	55%	81%	55%							
Cc1c(S(=O)(=O)NCC2CN(CCOc3cccc4ccccc34)C2)sc2ccc(Cl)cc12 [Compound 167, 5-Chloro-3-methyl-N-[[1-[2-(1-naphthyloxy)ethyl]azetidin-3-yl]methyl]benzothiophene-2-sulphonamide]	60%	31%	95%	94%	90%	97%	75%	3%							
O=C1Cc2cc(S(=O)(=O)NCC3CN(CCOc4cccc5c4OCCO5)C3)ccc2N1 [Compound 189, N-[[1-[2-(2,3-Dihydro-1,4-benzodioxin-5-yloxy)ethyl]azetidin-3-yl]methyl]-2-oxo-indoline-5-sulphonamide]	71%	41%	74%	46%	90%	61%	112%	71%							
O=S(=O)(NC1CCN(CCCc2noc3cc(F)ccc23)C1)c1ccc(-c2ccccc2)cc1 (stereo not drawn) [Compound 195, N-[1-[3-(6-Fluoro-1,2-benzoxazol-3-yl)propyl]pyrrolidin-3-yl]-4-phenyl-benzenesulphonamide]	93%	7%	101%	86%	86%	82%	47%	79%							
O=S(=O)(NCC1CCN(CCOc2cccc3c2OCCO3)C1)c1ccc2scnc2c1 (stereo not drawn) [Compound 285, N-[[1-[2-(2,3-Dihydro-1,4-benzodioxin-5-yloxy)ethyl]pyrrolidin-3-yl]methyl]-1,3-benzothiazole-5-sulphonamide]	24%	60%	77%	34%	86%	18%	62%	69%							
O=S(=O)(NCC1CN(CCOc2nsc3ccccc23)C1)c1ccc2ccccc2c1 [Compound 162, N-[[1-[2-(1,2-Benzothiazol-3-yloxy)ethyl]azetidin-3-yl]methyl]-naphthalene-2-sulphonamide]	61%	-9%	-17%	-56%	91%	100%	85%	83%							
